In general, IC50 refers to the midpoint of a concentration-inhibition curve.

This passage reports IC50, Activity and inhibition results from ChEMBL document CHEMBL4680169, “Synthesis and bioevaluation of new vascular-targeting and anti-angiogenic thieno[2,3-d]pyrimidin-4(3H)-ones” (Eur J Med Chem, 2020).

Activity calls are given as the source filed them. The calls are words filed in the database; no cut-off is given here.

In assay [1] the test system is HCT-116. The assay can be described thus: cells. In kind it is functional, cell-based. The conditions noted are these: Homo sapiens, HCT-116, 72 h.
Description: Cytotoxicity against human HCT-116 p53 mutant cells assessed as inhibition of cell growth after 72 hrs by MTT assay
For assay [2], the system named is EA.hy 926. The assay can be described thus: cells. The conditions noted are these: Homo sapiens, EA.hy 926, 72 h. The assay is classed as functional, cell-based.
Description: Cytotoxicity against human EA.hy 926 cells assessed as inhibition of cell growth after 72 hrs by MTT assay
In assay [3] the test system is HCT-116. The assay can be described thus: cells. In kind it is functional, cell-based. The conditions noted are these: Homo sapiens, HCT-116, 72 h. The source holds these as a separate data set.
Description: Cytotoxicity against wild type human HCT-116 cells assessed as inhibition of cell growth after 72 hrs by MTT assay
In assay [4] the test system is 518A2. The assay is described as follows: cells. The assay is classed as functional, cell-based. The conditions noted are these: Homo sapiens, 518A2, 72 h.
Description: Cytotoxicity against human 518A2 cells assessed as inhibition of cell growth after 72 hrs by MTT assay
Assay [5] has as its system KB-V1. The assay is described as follows: cells. The assay is classed as functional, cell-based. To be noted: Homo sapiens, KB-V1, 72 h.
Description: Cytotoxicity against multidrug resistant human KB-V1 cells assessed as inhibition of cell growth after 72 hrs by MTT assay
For assay [6], the target named is T1, Tubulin (Homo sapiens) (UniProt P68371+Q9H4B7+P0DPH7+P68366+Q13509+Q71U36+P04350+Q3ZCM7+P07437+P68363+Q9BQE3+Q6PEY2+Q13885+Q9BVA1+Q9BUF5). The assay can be described thus: Induction of microtubule cytoskeleton disruption in human EA.hy926 cells at 25 nM measured after 24 hrs by DAPI staining based fluorescence microscopic analysis. The conditions noted are these: EA.hy 926. In kind it is cell-based.

The target of assay [7] is T1, Tubulin (Homo sapiens). The assay is described as follows: Induction of microtubule cytoskeleton disruption in human EA.hy926 cells at 50 nM assessed as mitotic catastrophe measured after 24 hrs by DAPI staining based fluorescence microscopic analysis. In kind it is cell-based. To be noted: EA.hy 926.
Assay [8] concerns EA.hy 926. The assay is described as follows: Induction of F-actin cytoskeleton disruption in human EA.hy926 cells at 50 nM assessed as formation of actin stress fibers measured after 3 hrs by DAPI staining based fluorescence microscopic analysis. The assay is classed as cell-based.
Assay [9] is described as follows: cells. In kind it is ADME, cell-based. To be noted: Homo sapiens, HDFa, 72 h.
Description: Cytotoxicity against human HDfa cells assessed as inhibition of cell growth after 72 hrs by MTT assay
The species named for assay [10] is Sus scrofa. The assay can be described thus: Inhibition of porcine brain tubulin polymerization at 10 uM measured at 20 sec interval for 2 hrs by turbidometric method.
Assay [11] relates to EA.hy 926. The assay can be described thus: Cell cycle arrest in human EA.hy926 cells assessed as accumulation at sub-G1 phase after 24 hrs by propidium iodide staining based flow cytometric analysis. In kind it is functional.
Assay [12] relates to Chorioallantoic membrane. The assay is described as follows: Vascular disruptive effect in chicken fertilized egg chorioallantoic membrane at 5 nmol incubated for 24 hrs by CAM assay. To be noted: Gallus gallus. In kind it is functional, tissue-based.

As to `COc1c(Br)cc(-c2nc3sc4c(c3c(=O)[nH]2)CCCC4)cc1Br`, the concentration for half-maximal inhibition (IC50) in assay [1] came out at 0.7 µM; in assay [2], 1 µM; in assay [3] it was 0.8 µM; in assay [4] it was 2.4 µM; in [5], 0.7 µM.
Consider `COc1c(Br)cc(-c2nc3sc4c(c3c(=O)[nH]2)CCCCC4)cc1Br`, for which the IC50 in assay [1] is 1 µM; in [2], 1 µM; in [3] it was 0.9 µM; in [4], 0.4 µM; in assay [5] it was 1.4 µM.
Consider `COc1cc(-c2nc(O)c3c4c(sc3n2)CCCC4)cc(OC)c1OC`, for which the half-maximal inhibitory concentration (IC50) is 0.3 µM in assay [1]; 0.4 µM in [2]; 5.5 µM in assay [3]; 0.2 µM in assay [4]; > 100 µM in assay [9]; 0.2 µM in assay [5]. For the same molecule, the result in assay [6] and in assay [8] was inactive. The outcome in assay [7] was Active.
Turning to `COc1cc(-c2nc3sc4c(c3c(=O)[nH]2)CCCCC4)cc(Cl)c1OC`, the half-inhibitory concentration (IC50) in assay [1] was 0.8 µM; in assay [2] it was 0.2 µM; in [3], 0.3 µM; in assay [4] it was 0.7 µM; in [5], 0.7 µM.
For the molecule `CCOC(=O)N1CCc2c(sc3nc(-c4cccc(C#N)c4)[nH]c(=O)c23)C1`, the IC50 turned out to be 4.3 µM in assay [1]; 12.5 µM in assay [2]; 4.9 µM in [3]; 4.1 µM in assay [4]; 7.1 µM in [5].
The matching figures for `CCOC(=O)N1CCc2c(sc3nc(-c4cccnc4)[nH]c(=O)c23)C1`: 39.1 µM, 100 µM, 32.5 µM, 80 µM and 35.2 µM.
The like results for `COc1cc(-c2nc3sc4c(c3c(=O)[nH]2)CCN(C(C)=O)C4)cc(Br)c1OC` were, in that order, 0.5 µM, 0.9 µM, 0.4 µM, 0.5 µM and 2.8 µM.
The matching figures for `O=c1[nH]c(-c2cccc(Br)c2)nc2sc3c(c12)CCCCC3`: > 100 µM, > 100 µM, > 100 µM, > 100 µM and > 100 µM.
As to `CCOC(=O)N1CCc2c(sc3nc(-c4cc(F)cc(F)c4)[nH]c(=O)c23)C1`, the IC50 in assay [1] turned out to be 4.2 µM; in assay [2], 4 µM; in [3], 1.6 µM; in assay [4], 5.2 µM; in assay [5], 5.3 µM.
The like results for `COc1cc(-c2nc3sc4c(c3c(=O)[nH]2)CCNC4)cc(OC)c1OC` were, in that order, > 100 µM, 100 µM, > 100 µM, > 100 µM and > 100 µM.
The matching figures for `COc1cc(-c2nc3sc4c(c3c(=O)[nH]2)CCCC4)cc(Cl)c1OC`: 1 µM, 0.4 µM, 0.5 µM, 0.4 µM and 0.3 µM.
Consider `COc1cc(-c2nc3sc4c(c3c(=O)[nH]2)CCNC4)cc(I)c1OC`, for which the IC50 was determined as 0.8 µM in assay [1]; 1 µM in assay [2]; 1 µM in [3]; 1.4 µM in [4]; 2.5 µM in [5]. The inhibition result in [10] was “Active”.
Turning to `O=c1[nH]c(-c2cc(F)cc(F)c2)nc2sc3c(c12)CCCCC3`, the IC50 in [1], in assay [2], in assay [3], in [4] and in assay [5] was > 100 µM each time.
As to `CCOC(=O)N1CCc2c(sc3nc(-c4ccc(OC)c(O)c4)[nH]c(=O)c23)C1`, the IC50 was determined as 5.6 µM in assay [1]; 4.5 µM in assay [2]; 1.8 µM in assay [3]; 2.3 µM in assay [4]; 2.2 µM in assay [5].
The matching figures for `O=c1[nH]c(-c2cccc(Br)c2)nc2sc3c(c12)CCNC3`: 1.4 µM, 1.6 µM, 1.6 µM, 1.7 µM and 2.2 µM.
The like results for `N#Cc1cccc(-c2nc3sc4c(c3c(=O)[nH]2)CCCC4)c1` were, in that order, 0.2 µM, 1.2 µM, 0.7 µM, 0.3 µM and 1.9 µM.
On to `COc1cc(-c2nc3sc4c(c3c(=O)[nH]2)CCCCC4)cc(I)c1OC`, for which the IC50 in assay [1] is 0.2 µM; in assay [2] it was 0.2 µM; in assay [3], 0.3 µM; in assay [4] it was 0.2 µM; in assay [5], 0.6 µM.
Regarding `N#Cc1cccc(-c2nc3sc4c(c3c(=O)[nH]2)CCCCC4)c1`, the IC50 is 1 µM in assay [1]; 13.1 µM in assay [2]; 3.8 µM in assay [3]; 9.4 µM in [4]; 18.2 µM in [5].
The like results for `C=CC(=O)N1CCc2c(sc3nc(-c4cc(Br)c(OC)c(OC)c4)[nH]c(=O)c23)C1` were, in that order, 4.6 µM, 0.9 µM, 4.3 µM, 0.7 µM and 1.9 µM.
Regarding `O=c1[nH]c(-c2cc(F)cc(F)c2)nc2sc3c(c12)CCNC3`, the IC50 in assay [1] came out at 3.6 µM; in assay [2], 5.4 µM; in assay [3], 6.9 µM; in [4], 5.7 µM; in assay [5] it was 6.5 µM.
The like results for `COc1cc(-c2nc3sc4c(c3c(=O)[nH]2)CCCCC4)cc(Br)c1OC` were, in that order, 0.3 µM, 0.3 µM, 0.8 µM, 0.2 µM and 0.3 µM.
As to `COc1cc(-c2nc3sc4c(c3c(=O)[nH]2)CCN(C(C)=O)C4)cc(I)c1OC`, the IC50 was 0.4 µM in [1]; 0.1 µM in [2]; 0.2 µM in [3]; 0.3 µM in assay [4]; 0.6 µM in assay [5]. Further, the inhibition result in assay [10] was “Active”.
Consider `COc1cc(-c2nc3sc4c(c3c(=O)[nH]2)CCNC4)cc(Cl)c1OC`, for which the IC50 is 10.8 µM in assay [1]; 6.3 µM in assay [2]; > 100 µM in assay [3]; 16.4 µM in [4]; 17 µM in [5].
The matching figures for `COc1cc(-c2nc3sc4c(c3c(=O)[nH]2)CCNC4)cc(Br)c1OC`: 7.4 µM, 11.5 µM, 10.6 µM, 9.3 µM and 2 µM.
As for `C=CC(=O)N1CCc2c(sc3nc(-c4cc(I)c(OC)c(OC)c4)[nH]c(=O)c23)C1`, the concentration for half-maximal inhibition (IC50) in [1] was found to be 0.7 µM; in [2], 0.4 µM; in assay [3], 2 µM; in assay [4], 0.2 µM; in [5], 1.2 µM. In addition, the inhibition entry in [10] was “Active”.
As for `CCOC(=O)N1CCc2c(sc3nc(-c4cc(Br)c(OC)c(OC)c4)[nH]c(=O)c23)C1`, the IC50 in [1] was found to be 0.5 µM; in assay [2] it was 0.2 µM; in assay [3], 0.4 µM; in [4] it was 0.5 µM; in [5] it was 0.3 µM.
On to `COc1ccc(/C=C\c2cc(OC)c(OC)c(OC)c2)cc1O` [COMBRETASTATIN A4], for which the IC50 in assay [1] is 0.002 µM; in assay [2], 0.01 µM; in [3], 0.003 µM; in [4] it was 0.02 µM; in assay [9], > 100 µM; in [5], 0.004 µM. For the same molecule, the outcome in assay [6], in [8] and in [12] was Active. Further, the Activity entry in [11] was “Dose-dependent effect”.
As to `COc1cc(-c2nc3sc4c(c3c(=O)[nH]2)CCCC4)cc(Br)c1OC`, the 50% inhibitory concentration (IC50) amounted to 0.5 µM in [1]; 0.3 µM in assay [2]; 0.4 µM in [3]; 0.3 µM in assay [4]; 0.3 µM in assay [5].
On to `COc1ccc(-c2nc3sc4c(c3c(=O)[nH]2)CCNC4)cc1`, for which the half-maximal inhibitory concentration (IC50) turned out to be 2.2 µM in assay [1]; 3.8 µM in [2]; 4 µM in [3]; 3.8 µM in assay [4]; 6.7 µM in [5].
On to `COc1c(Br)cc(-c2nc3sc4c(c3c(=O)[nH]2)CCNC4)cc1Br`, for which the IC50 turned out to be 1.5 µM in assay [1]; 1 µM in assay [2]; 1.5 µM in assay [3]; 5.8 µM in assay [4]; 6.2 µM in assay [5].
With `CCOC(=O)N1CCc2c(sc3nc(-c4cc(OC)c(OC)c(OC)c4)[nH]c(=O)c23)C1`, the IC50 was found to be 0.5 µM in assay [1]; 0.2 µM in assay [2]; 0.6 µM in [3]; 0.2 µM in assay [4]; 0.8 µM in assay [5].
